Assay [1] is described as follows: Inhibition of KB cell growth was determined. The format is functional, cell-based. To be noted: Homo sapiens.
Assay [2] concerns HFF. In words: Visual cytotoxicity was scored on HFF cells at time of HCMV plaque enumeration. It counts as functional, cell-based. To be noted: Homo sapiens.
Assay [3] in a line: ELISA assay was performed using BSC-1 cells to determine activity against HSV-1. It counts as functional, cell-based, Cercopithecidae.
The subject of assay [4] is HFF. The assay is described as follows: Antiviral activity against HCMV was determined by plaque reduction assay using HFF cells. The format is functional, cell-based. To be noted: Homo sapiens.
Assay [5] deals with HFF. In words: Antiviral activity against HCMV was determined by yield reduction assay using HFF cells. The format is functional. The following applies: Homo sapiens.

This note sets out measurements from ChEMBL document CHEMBL1133752, “Synthesis and antiviral evaluation of trisubstituted indole N-nucleosides as analogues of 2,5,6-trichloro-1-(beta-D-ribofuranosyl)benzimidazole (TCRB)” (J Med Chem, 2000).

pIC50: −log10 of the molar value. Some results are limits rather than exact numbers.

One may read the pIC50 as the IC50 on a negative log10 scale, so that one unit is a factor of ten. A low value points to a large IC50. With `Clc1cc2cc(Br)[nH]c2cc1Cl`, the pIC50 in assay [1] is 4.15; in the assay on HFF [2], 4.49; in assay [3], 4.15; in the assay on HFF [4], 4.85.

Usually IC90 stands for the concentration needed for an effect of 90%. Higher therefore signals weaker potency. Turning to `OC[C@H]1O[C@@H](n2c(Cl)nc3cc(Cl)c(Cl)cc32)[C@H](O)[C@@H]1O`, the negative logarithm of the IC50 (pIC50) in assay [1] is 3.68; in assay [3], 3.99. In the assay on HFF [5], this molecule registered an IC90 of 1.4 µM.

On to `OC[C@H]1OC(n2c(Cl)cc3cc(Cl)c(Cl)cc32)[C@H](O)[C@@H]1O` (some centres not stated), for which the pIC50 in assay [1] is below 4.00; with HFF [2], below 4.00; in assay [3] it was below 4.00; in the assay with HFF [4] it was 4.38. This molecule also displayed an IC90 in the assay on HFF [5] of 50 µM.

Turning to `OC[C@H]1OC(n2c(Br)cc3cc(Cl)c(Cl)cc32)[C@H](O)[C@@H]1O` (some centres not stated), the pIC50 was below 4.00 in assay [1], 4.00 with HFF [2], below 4.00 in assay [3] and 4.74 in the assay with HFF [4]. The IC90 in the assay on HFF [5] worked out at 42 µM.

As to `OC[C@H]1O[C@@H](n2c(SCc3ccccc3)cc3cc(Cl)c(Cl)cc32)CC1O` (some centres not stated), the pIC50 was 4.22 in assay [1], 4.49 in the assay with HFF [2], 4.40 in assay [3] and 4.49 with HFF [4].

On to `O=C(O)P(=O)(O)O` [FOSCARNET], for which the pIC50 in the assay on HFF [2] was below 4.00; in the assay with HFF [4], 4.41.

With `Nc1nc2c(ncn2COC(CO)CO)c(=O)[nH]1` [GANCICLOVIR], the values for the pIC50 (in assay [1]; in the assay with HFF [2]; in assay [3]) were below 4.00, below 4.00 and 5.46, respectively. In the assay on HFF [5], the IC90 came to 1.6 µM.
